Results as given in ChEMBL document CHEMBL2169792, “Synthesis of new 4-thiazolidinone-, pyrazoline-, and isatin-based conjugates with promising antitumor activity” (J Med Chem, 2012).
Active and inactive are the calls of the source. The rule behind the calls is not given here.

Legend:
[1] = Cytotoxicity against human non-small cell lung cancer cells after 48 hrs by SRB assay; format: functional; details: Cancer cell lines; for CC50: read-out: LC50 (the source's name)
[2] = Cytotoxicity against human prostate cancer cells after 48 hrs by SRB assay; format: functional; details: Cancer cell lines
[3] = Cytotoxicity against human breast cancer cells after 48 hrs by SRB assay; format: functional; details: Cancer cell lines
[4] = Cytotoxicity against human renal cancer cells after 48 hrs by SRB assay; format: functional; details: Cancer cell lines
[5] = Cytotoxicity against human melanoma cells after 48 hrs by SRB assay; format: functional; details: Melanoma cell; for CC50: read-out: LC50 (the source's name)
[6] = Cytotoxicity against human ovarian cancer cells after 48 hrs by SRB assay; format: functional; details: Cancer cell lines
[7] = Cytotoxicity against human CNS cancer cells after 48 hrs by SRB assay; format: functional; details: Cancer cell lines
[8] = Cytotoxicity against human colon cancer cells after 48 hrs by SRB assay; format: functional; details: Cancer cell lines
[9] = Cytotoxicity against human leukemia cells after 48 hrs by SRB assay; format: functional; details: Leukemia cell; for CC50: read-out: LC50 (the source's name)
[10] = tested on: U-251; assay: Cytotoxicity against human U251 cells assessed as cell growth at 10 uM after 48 hrs by SRB assay; format: functional; details: U-251, 48 h, read-out: Activity
[11] = Toxicity in mouse; format: organism-based; details: in vivo
[12] = tested on: Mus musculus; assay: Antitumor activity in ip dosed athymic nude mouse hollow fiber model assessed as reduction of viable cell mass; format: functional, organism-based
[13] = tested on: NCI-H522; assay: Cytotoxicity against human NCI-H522 cells assessed as cell growth at 10 uM after 48 hrs by SRB assay; format: functional; details: NCI-H522, 48 h, read-out: Activity
[14] = tested on: CCRF-CEM; assay: Cytotoxicity against human CCRF-CEM cells assessed as cell growth at 10 uM after 48 hrs by SRB assay; format: functional; details: read-out: Activity

Structure (SMILES) | GI50 [1] | TGI [1] | CC50 [1] | GI50 [2] | LC50 [2] | TGI [2] | GI50 [3] | LC50 (concentration causing 50% net cell kill) [3] | TGI [3] | GI50 [4] | LC50 [4] | TGI [4] | GI50 [5] | TGI [5] | CC50 [5] | GI50 [6] | LC50 (concentration causing 50% net cell kill) [6] | TGI [6] | GI50 [7] | LC50 (concentration giving 50% net cell kill) [7] | also measured
COc1ccc(C2=NN(C3=NC(=O)/C(=C4\C(=O)Nc5ccccc54)S3)C(c3ccc(OC)cc3)C2)cc1 (centres undefined) | 88.1 µM | 91.5 µM | 100 µM | 100 µM | 100 µM | 100 µM | 81.5 µM | 100 µM | 99.6 µM | 85.2 µM | 100 µM | 100 µM | 100 µM | 100 µM | 100 µM | 92.2 µM | 100 µM | 100 µM | 43.9 µM | 100 µM | TGI [7]: 89.2 µM; GI50 [8]: 100 µM; LC50 (concentration lethal to 50% of cells) [8]: 100 µM; TGI [8]: 100 µM; GI50 [9]: 100 µM; TGI [9]: 100 µM; CC50 [9]: 100 µM; growth at 10 µM [10]: 44.7%
O=C1N=C(N2N=C(c3ccc4ccccc4c3)CC2c2ccc(Cl)cc2)S/C1=C1/C(=O)Nc2ccccc21 (centres undefined) | 0.46 µM | 20.9 µM | 100 µM | 0.4 µM | 100 µM | 50.7 µM | 0.74 µM | 91.7 µM | 38.3 µM | 0.4 µM | 75.5 µM | 42.1 µM | 0.35 µM | 24.7 µM | 83 µM | 15.4 µM | 100 µM | 56.1 µM | 8.8 µM | 75.9 µM | MTD [11]: > 400 mg/kg; TGI [7]: 27.3 µM; GI50 [8]: 0.53 µM; LC50 (concentration lethal to 50% of cells) [8]: 83.8 µM; TGI [8]: 70.3 µM; GI50 [9]: 19.1 µM; TGI [9]: 71.6 µM; CC50 [9]: 93.1 µM; growth at 10 µM [10]: -25.1%; Activity [12]: inactive
COc1ccc(C2=NN(C3=NC(=O)/C(=C4\C(=O)N(C)c5ccccc54)S3)C(c3ccc(Cl)cc3)C2)cc1 (centres undefined) | – | – | – | – | – | – | – | – | – | – | – | – | – | – | – | – | – | – | – | – | growth at 10 µM [13]: 102%
COc1ccc(C2CC(c3ccc4ccccc4c3)=NN2C2=NC(=O)/C(=C3\C(=O)Nc4ccccc43)S2)cc1 (centres undefined) | 0.62 µM | 4.03 µM | 48.7 µM | 0.36 µM | 100 µM | 2.47 µM | 5.96 µM | 73.7 µM | 32.8 µM | 0.87 µM | 51.3 µM | 13.6 µM | 4.8 µM | 27 µM | 64.1 µM | 0.97 µM | 66.9 µM | 24.2 µM | 0.67 µM | 48.2 µM | TGI [7]: 12.6 µM; GI50 [8]: 1.68 µM; LC50 (concentration lethal to 50% of cells) [8]: 38.3 µM; TGI [8]: 12.4 µM; GI50 [9]: 17.5 µM; TGI [9]: 59.6 µM; CC50 [9]: 97.5 µM; growth at 10 µM [10]: -26.3%
O=C(O)CN1C(=O)C(n2nc(-c3ccccc3)cc2-c2ccc(Cl)cc2)c2ccccc21 (centres undefined) | – | – | – | – | – | – | – | – | – | – | – | – | – | – | – | – | – | – | – | – | growth at 10 µM [14]: 97.7%
COc1ccc(C2=NN(C3=NC(=O)/C(=C4\C(=O)Nc5ccc(Br)cc54)S3)C(c3ccc(OC)cc3)C2)cc1 (centres undefined) | 0.2 µM | 0.43 µM | 75.2 µM | 0.27 µM | 100 µM | 0.71 µM | 0.21 µM | 66.9 µM | 0.48 µM | 0.2 µM | 64.6 µM | 0.38 µM | 0.19 µM | 0.41 µM | 17.3 µM | 0.24 µM | 78.7 µM | 32.5 µM | 0.2 µM | 70.2 µM | TGI [7]: 0.405 µM; GI50 [8]: 0.2 µM; LC50 (concentration lethal to 50% of cells) [8]: 50.4 µM; TGI [8]: 25.3 µM; GI50 [9]: 0.28 µM; TGI [9]: 62.7 µM; CC50 [9]: 100 µM; growth at 10 µM [10]: 23.9%
O=C1Nc2ccccc2C1n1nc(-c2ccc3ccccc3c2)cc1-c1ccc(Cl)cc1 (centres undefined) | – | – | – | – | – | – | – | – | – | – | – | – | – | – | – | – | – | – | – | – | growth at 10 µM [13]: 90.8%
O=C(O)CN1C(=O)C(n2nc(-c3ccc4ccccc4c3)cc2-c2ccc(Cl)cc2)c2ccccc21 (centres undefined) | – | – | – | – | – | – | – | – | – | – | – | – | – | – | – | – | – | – | – | – | growth at 10 µM [14]: 103%
COc1ccc(-c2cc(-c3ccc(OC)cc3)n(C3C(=O)Nc4ccccc43)n2)cc1 (centres undefined) | – | – | – | – | – | – | – | – | – | – | – | – | – | – | – | – | – | – | – | – | growth at 10 µM [13]: 87.5%
